Source: the NIST ThermoML archive (doi:10.1021/je400056z)

Test: xn = mol fraction of the nth substance listed
Details: Liquid, Vibrating tube method

CCCCCCC [heptane] + O=C=O
Details | mass density [kg/m3]
313.03 K, 17002 kPa, x2 = 0.5085 | 728.84
313.03 K, 18023 kPa, x2 = 0.5085 | 730.55
313.03 K, 19009 kPa, x2 = 0.5085 | 732.08
313.03 K, 20003 kPa, x2 = 0.5085 | 733.69
313.03 K, 21000 kPa, x2 = 0.5085 | 735.25
313.03 K, 22016 kPa, x2 = 0.5085 | 736.75
313.03 K, 23006 kPa, x2 = 0.5085 | 738.31
313.03 K, 24019 kPa, x2 = 0.5085 | 739.74
313.03 K, 25004 kPa, x2 = 0.5085 | 741.18
313.08 K, 2007 kPa, x2 = 0.0218 | 670.88
313.08 K, 3009 kPa, x2 = 0.0218 | 671.95
313.08 K, 4008 kPa, x2 = 0.0218 | 673.02
313.08 K, 5014 kPa, x2 = 0.0218 | 674.05
313.08 K, 6010 kPa, x2 = 0.0218 | 675.07
313.08 K, 7005 kPa, x2 = 0.0218 | 676.19
313.08 K, 8174 kPa, x2 = 0.0218 | 677.13
313.08 K, 9005 kPa, x2 = 0.0218 | 678.13
313.08 K, 10008 kPa, x2 = 0.0218 | 679.18
313.08 K, 11000 kPa, x2 = 0.0218 | 680.15
313.08 K, 12009 kPa, x2 = 0.0218 | 681.11
313.08 K, 13002 kPa, x2 = 0.0218 | 682.02
313.08 K, 14006 kPa, x2 = 0.0218 | 683
313.08 K, 15004 kPa, x2 = 0.0218 | 683.85
313.08 K, 16007 kPa, x2 = 0.0218 | 684.89
313.08 K, 17002 kPa, x2 = 0.0218 | 685.71
313.08 K, 18005 kPa, x2 = 0.0218 | 686.44
313.08 K, 19010 kPa, x2 = 0.0218 | 687.37
313.08 K, 20009 kPa, x2 = 0.0218 | 688.24
313.08 K, 21004 kPa, x2 = 0.0218 | 689.1
313.08 K, 22010 kPa, x2 = 0.0218 | 689.97
313.08 K, 23003 kPa, x2 = 0.0218 | 690.81
313.08 K, 24007 kPa, x2 = 0.0218 | 691.63
313.08 K, 24906 kPa, x2 = 0.0218 | 692.41
322.85 K, 5012 kPa, x2 = 0.3148 | 682.49
322.85 K, 6012 kPa, x2 = 0.3148 | 684.11
322.85 K, 7008 kPa, x2 = 0.3148 | 685.75
322.85 K, 8009 kPa, x2 = 0.3148 | 687.35
322.85 K, 8996 kPa, x2 = 0.3148 | 688.86
322.85 K, 10005 kPa, x2 = 0.3148 | 690.36
322.85 K, 11012 kPa, x2 = 0.3148 | 691.87
322.85 K, 11996 kPa, x2 = 0.3148 | 693.32
322.85 K, 13003 kPa, x2 = 0.3148 | 694.75
322.85 K, 14006 kPa, x2 = 0.3148 | 696.09
322.85 K, 15010 kPa, x2 = 0.3148 | 697.48
322.85 K, 16003 kPa, x2 = 0.3148 | 698.79
322.85 K, 17009 kPa, x2 = 0.3148 | 700.14
322.85 K, 18001 kPa, x2 = 0.3148 | 701.39
322.85 K, 19012 kPa, x2 = 0.3148 | 702.67
322.85 K, 20007 kPa, x2 = 0.3148 | 703.86
322.85 K, 21000 kPa, x2 = 0.3148 | 705.12
322.85 K, 22017 kPa, x2 = 0.3148 | 706.33
322.85 K, 23010 kPa, x2 = 0.3148 | 707.55
322.85 K, 23985 kPa, x2 = 0.3148 | 708.71
322.85 K, 25004 kPa, x2 = 0.3148 | 709.93
322.91 K, 8013 kPa, x2 = 0.7514 | 707.83
322.91 K, 8994 kPa, x2 = 0.7514 | 712.85
322.91 K, 10015 kPa, x2 = 0.7514 | 717.65
322.91 K, 10996 kPa, x2 = 0.7514 | 722.08
322.91 K, 12005 kPa, x2 = 0.7514 | 726.29
322.91 K, 13025 kPa, x2 = 0.7514 | 730.31
322.91 K, 13986 kPa, x2 = 0.7514 | 733.99
322.91 K, 15009 kPa, x2 = 0.7514 | 737.66
322.91 K, 16002 kPa, x2 = 0.7514 | 741.14
322.91 K, 17007 kPa, x2 = 0.7514 | 744.51
322.91 K, 17997 kPa, x2 = 0.7514 | 747.63
322.91 K, 19009 kPa, x2 = 0.7514 | 750.74
322.91 K, 20004 kPa, x2 = 0.7514 | 753.71
322.91 K, 21008 kPa, x2 = 0.7514 | 756.6
